This is an account of results in patent publication US7902235B2 (priority 2004, dated 2011).

Series [1] deals with tripeptidyl-peptidase 1 (TPP-I). Particulars: patient-derived LINCL cell line, compound heterozygous Arg208Stop and a rare nonsense mutation; maximal; cited from earlier work.

As for `CC(C)CC(C)OC(=O)NC(=O)c1cccc(-c2noc(-c3ccccc3F)n2)c1` (centres unmarked) [Compound 39], the melting point (in general, the temperature, or range, at which the solid turns liquid) fell in the range of 108 to 109 °C.

`O=C(NC(=O)C(F)(F)F)c1cccc(-c2noc(-c3ccccc3F)n2)c1` [Compound 47] yielded a melting point of 119 to 120 °C.

As for `CC(=O)NC(=O)c1cccc(-c2noc(-c3ccccc3F)n2)c1` [Compound 45, N-Acetyl-3-[5-(2-fluorophenyl)-[1,2,4]oxadiazol-3-yl]benzamide], the melting point was in the range of 119 to 120 °C.

`NC(=O)NC(=O)c1cccc(-c2noc(-c3ccccc3F)n2)c1` [Compound 6] gave a melting point of 240 °C.

On to `O=C(NC(=O)c1cccc(-c2noc(-c3ccccc3F)n2)c1)OCCN1CCOCC1` [Compound 12], for which the melting point is 223 to 224 °C.

`CONC(=O)NC(=O)c1cccc(-c2noc(-c3ccccc3F)n2)c1` [Compound 5] gave a melting point of 206 to 207 °C.

As to `CCOC(=O)NC(=O)c1cccc(-c2noc(-c3ccccc3F)n2)c1` [Compound 2], the melting point fell in the range of 160.5 to 162 °C.

As for `O=C(NC(=O)c1cccc(-c2noc(-c3ccccc3F)n2)c1)OC1CCCc2ccccc21` (centres unmarked) [Compound 32], the melting point lay within 168 to 170 °C.

Compound `CC(C)C(C)OC(=O)NC(=O)c1cccc(-c2noc(-c3ccccc3F)n2)c1` (centres unmarked) [Compound 38] registered a melting point of 168 to 170 °C.

`CCN(CC)C(=O)NC(=O)c1cccc(-c2noc(-c3ccccc3F)n2)c1` [Compound 26] gave a melting point of 161 to 163 °C.

As for `O=C(NC(=O)c1cccc(-c2noc(-c3ccccc3F)n2)c1)OCCc1ccccc1` [Compound 16], the melting point lay in the range of 129 to 130 °C.

In turn, `CC(C)OC(=O)NC(=O)c1cccc(-c2noc(-c3ccccc3F)n2)c1` [Compound 3] returned a melting point of 172 to 174 °C.

`CC(OC(=O)NC(=O)c1cccc(-c2noc(-c3ccccc3F)n2)c1)c1ccc(F)cc1` (centres unmarked) [Compound 51]: the melting point was 116 to 118 °C.

For `Cc1ccc(S(=O)(=O)NC(=O)NC(=O)c2cccc(-c3noc(-c4ccccc4F)n3)c2)cc1` [Compound 15], the melting point lay in the range of 188 to 191 °C.

On to `O=C(NC(=O)N1CCCC1)c1cccc(-c2noc(-c3ccccc3F)n2)c1` [Compound 24], for which the melting point was 178 to 180 °C.

As for `Cc1cc(C)cc(NC(=O)NC(=O)c2cccc(-c3noc(-c4ccccc4F)n3)c2)c1` [Compound 27], the melting point lay in the range of 247 to 250 °C.

The compound `CC(C)C(=O)NC(=O)c1cccc(-c2noc(-c3ccccc3F)n2)c1` [Compound 46, 3-[5-(2-Fluorophenyl)-[1,2,4]oxadiazol-3-yl]-N-isobutyrl-benzamide] registered a melting point of 183 to 184 °C.

`O=C(NC(=O)c1cccc(-c2noc(-c3ccccc3F)n2)c1)OC1CCCC1` [Compound 22]: the melting point lay within 187 to 190 °C.

`CC(OC(=O)NC(=O)c1cccc(-c2noc(-c3ccccc3F)n2)c1)C(C)(C)C` (racemic) [Compound 37, (±)-{3-[5-(2-Fluorophenyl)-[1,2,4]oxadiazol-3-yl]benzoyl}carbamic Acid 1,2,2-trimethylpropyl Ester] showed a melting point of 170 to 173 °C.

`O=C(NC(=O)c1cccc(-c2noc(-c3ccccc3F)n2)c1)O[C@@H]1CCOC1` [Compound 49] yielded a melting point of 152 to 156 °C.

As for `O=C(NC(=O)c1cccc(-c2noc(-c3ccccc3F)n2)c1)OC(c1ccccc1)C(F)(F)F` (centres unmarked) [Compound 33], the melting point fell in the range of 164 to 165 °C.

Compound `COCCOC(=O)NC(=O)c1cccc(-c2noc(-c3ccccc3F)n2)c1` [Compound 21] displayed a melting point of 139 to 141 °C.

Take `O=C(NC(=O)c1cccc(-c2noc(-c3ccccc3F)n2)c1)OC1CCN(Cc2ccccc2)CC1` [Compound 42]: the melting point fell in the range of 132 to 134 °C.

`COC(=O)NC(=O)c1cccc(-c2noc(-c3ccccc3F)n2)c1` [Compound 1] returned a melting point of 176 to 177 °C.

With `CC(OC(=O)NC(=O)c1cccc(-c2noc(-c3ccccc3F)n2)c1)c1ccccc1` (centres unmarked) [Compound 30], the melting point is 140 to 141 °C.

For the compound `O=C(NC(=O)N1CCN(c2ccccc2)CC1)c1cccc(-c2noc(-c3ccccc3F)n2)c1` [Compound 28], the melting point lay within 169 to 173 °C.

`CN1C(=O)C[C@H](OC(=O)NC(=O)c2cccc(-c3noc(-c4ccccc4F)n3)c2)C1=O` [Compound 43] showed a melting point of 120 to 123 °C.

In the case of `O=C(NC(=O)c1cccc(-c2noc(-c3ccccc3F)n2)c1)NC1CC1` [Compound 4], the melting point was in the range of 226 to 227.5 °C.

With `CC(OC(=O)NC(=O)c1cccc(-c2noc(-c3ccccc3F)n2)c1)c1ccc(C(F)(F)F)cc1` (centres unmarked) [Compound 40], the melting point lay within 161 to 163 °C.

For `O=C(NC(=O)c1cccc(-c2noc(-c3ccccc3F)n2)c1)OCc1ccccc1` [Compound 19], the melting point fell in the range of 133 to 134 °C.

The compound `COCC(C)OC(=O)NC(=O)c1cccc(-c2noc(-c3ccccc3F)n2)c1` (centres unmarked) [Compound 34] came in with a melting point of 141 to 143 °C.

For `O=C(NC(=O)c1cccc(-c2noc(-c3ccccc3F)n2)c1)Nc1ccccn1` [Compound 9], the melting point is 252 to 254 °C.

`O=C(NC(=O)c1cccc(-c2noc(-c3ccccc3F)n2)c1)OC1CCOCC1` [Compound 11]: the melting point fell in the range of 177.5 to 179 °C.

The compound `O=C(NC(=O)c1cccc(-c2noc(-c3ccccc3F)n2)c1)OC1Cc2ccccc2C1` [Compound 36] showed a melting point of 165 to 168 °C.

For `O=C(NC(=O)c1cccc(-c2noc(-c3ccccc3F)n2)c1)OC1CCOC1` (centres unmarked) [Compound 35], the melting point lay within 197 to 200 °C.

`O=C(NCCF)NC(=O)c1cccc(-c2noc(-c3ccccc3F)n2)c1` [Compound 7] showed a melting point of 233 to 234 °C.

As to `CC(OC(=O)NC(=O)c1cccc(-c2noc(-c3ccccc3F)n2)c1)c1ccncc1` (centres unmarked) [Compound 48], the melting point was in the range of 180 to 183 °C.

With `O=C(NC(=O)c1cccc(-c2noc(-c3ccccc3F)n2)c1)OC1CCCCC1` [Compound 17], the melting point was in the range of 172 to 174 °C.

In the case of `O=C(NC(=O)N1CCOCC1)c1cccc(-c2noc(-c3ccccc3F)n2)c1` [Compound 25, Morpholine-4-carboxylic Acid 3-[5-(2-fluorophenyl)-[1,2,4]oxadiazol-3-yl]benzoylamide], the melting point lay in the range of 190 to 194 °C.

On to `CC(OC(=O)NC(=O)c1cccc(-c2noc(-c3ccccc3F)n2)c1)C1CC1` (centres unmarked) [Compound 31], for which the melting point fell in the range of 150 to 152 °C.

Compound `CCCOC(=O)NC(=O)c1cccc(-c2noc(-c3ccccc3F)n2)c1` [Compound 20] displayed a melting point of 152 to 155 °C.

`C[C@@H](OC(=O)NC(=O)c1cccc(-c2noc(-c3ccccc3F)n2)c1)C(N)=O` [Compound 44] registered a melting point of 193 to 196 °C.

For gentamicin, the “TPP-I restored, of normal levels” value in series [1] was “approximately 7%”.

`O=C(NC(=O)c1cccc(-c2noc(-c3ccccc3F)n2)c1)Nc1ncccn1` [Compound 8] returned a melting point of 247 to 249 °C.

Consider `O=C(NC(=O)c1cccc(-c2noc(-c3ccccc3F)n2)c1)Oc1ccccc1` [Compound 10], for which the melting point lay in the range of 252 to 254 °C.

`O=C(NC(=O)c1cccc(-c2noc(-c3ccccc3F)n2)c1)OCC1CCCCC1` [Compound 18] displayed a melting point of 134 to 138 °C.

On to `O=C(NC(=O)c1cccc(-c2noc(-c3ccccc3F)n2)c1)Oc1cccc2c1CCCC2` [Compound 23], for which the melting point fell in the range of 199 to 202 °C.
